Data as given in patent US9562046B2, “Means and method for treating solid tumors” (Vivolux AB, priority 2012, dated 2017).

How the values were obtained:
[1] = Intravenous tolerability / systemic toxicity in NMRI mice; type: in vivo; settings: mouse, in vivo, iv, injected intravenously, read-out: maximally tolerated dose (MTD)
Protocol: (§1) The compound of the invention (compound 11) was injected intravenously in NMRI mice. […] The compound was rapidly distributed and finally eliminated with a half-life of 4˜5 h. The systemic toxicity of the compound of the invention is low.

NMRI mice = experiment: as above; type: in vivo
Protocol: as §1

[2] = Plasma pharmacokinetics after intravenous injection in NMRI mice; type: in vivo
Protocol: as §1

[3] = Stability studies at room temperature in 5% aqueous mannitol; type: physicochemical; settings: dihydrochloride/ethanol complex, storage for 100 h
Protocol: Stability studies at room temperature were conducted with from 0.1 mg/L to 15 mg/L of the dihydrochloride/ethanol complex in 5% aqueous mannitol (to provide for isotonicity). […] For instance, about 2.5% compound 11 is degraded after storage for 100 h of a solution comprising 15 mg compound per liter, while about 5% of the compound is degraded in a solution comprising 2 mg compound per liter, and about 13 of the compound in a solution comprising 0.1 mg compound per liter.

In the case of `C/C(=N/Nc1ccc2c(n1)[nH]c1c(C)cccc12)c1ccccn1` [compound 11, 2-[(1Z)-1-(2-{8-Methyl-8H, 8aH, 9H-pyrido[2,3-b]indol-2-yl}hydrazin-1-ylidene)ethyl]-pyridine], the MTD [1] is reported as 16 mg/kg, the “changes in plasma parameters (liver ALT, blood glucose, total protein)” value (NMRI mice; doses up to 4.5 mg/kg) is reported as “did not produce noteworthy changes” and the “effect on the animals' weight gain” value (NMRI mice; doses up to 4.5 mg/kg) is reported as “nor did they prevent the animals from gaining weight”. For the same compound, the systemic toxicity (NMRI mice; intravenous) was “low”, the “initial plasma concentration relative to the IC50 of tumor cell lines and primary patient colorectal cancer cells in vitro” value ([2]; at MTD of 16 mg/kg) was greater than 10 fold and the half-life ([2]; mouse, plasma, 16 mg/kg, NMRI mice, read-out: elimination half-life) was 4 to 5 h. The C0 ([2]; mouse, plasma, at MTD of 16 mg/kg, NMRI mice, read-out: initial plasma concentration) was roughly 100 µM, the compound degraded ([3]; 0.1 mg compound per liter) was “about 13” and the compound degraded ([3]; 2 mg compound per liter) was “about 5%”. For the same compound, the compound degraded ([3]; 15 mg compound per liter) was “about 2.5%”.
